Laboratory results as given in publication PMC4754968 (Clinical genitourinary cancer, 2014).

Experiments:
metastatic RCC [1] = details: front line metastatic RCC setting; ref [1],[2]; cited from earlier work
[2] = Sunitinib multiple-dose pharmacokinetics; type: in vivo, patients; details: for AUC / CL/F / Cmax / half-life: human, oral; for AUC / CL/F / Cmax / half-life / Cmin / Tmin: plasma, multiple dose (dose 14), sunitinib 50 mg daily with everolimus 30 mg weekly; for AUC: AUCtau, dosing interval 24 hours; for CL/F: dose/AUCtau
[3] = Everolimus single-dose pharmacokinetics; type: in vivo, patients; details: for AUCinf % extrapolated: single dose everolimus 30 mg
[4] = human, in vivo, 30 mg
[5] = cited from earlier work
metastatic RCC [6] = details: metastatic RCC previously treated with VEGFR tyrosine kinase inhibitor; ref [6]; cited from earlier work
[7] = cited from earlier work; remark: listed apart in the source

Cc1ccc(Nc2nccc(N(C)c3ccc4c(C)n(C)nc4c3)n2)cc1S(N)(=O)=O [pazopanib]
progression free survival (PFS) (metastatic RCC [1]): less than a year

CCN(CC)CCNC(=O)c1c(C)[nH]c(/C=C2\C(=O)Nc3ccc(F)cc32)c1C [Sunitinib, Sunitinib malate]
progression free survival (PFS) (metastatic RCC [1]): less than a year | AUC ([2]; subject 1001): 1860 ng·h/mL | AUC ([2]; subject 1002): 2770 ng·h/mL | AUC ([2]; subject 1003): 2300 ng·h/mL | CL/F ([2]; subject 1001): 7.13 mL/min/kg | CL/F ([2]; subject 1002): 3.12 mL/min/kg | CL/F ([2]; subject 1003): 5.34 mL/min/kg | Cmax ([2]; subject 1001): 83.1 ng/mL | Cmax ([2]; subject 1002): 142 ng/mL | Cmax ([2]; subject 1003): 106 ng/mL | half-life ([2]; t1/2, subject 1002): 33 h | half-life ([2]; t1/2, subject 1003): 85.5 h | AUCtau compared with sunitinib monotherapy ([2]; same dose of sunitinib (50 mg/d), compared with Faivre, et al): substantially higher | Cmin ([2]; subject 1001): 59.4 ng/mL | Tmin ([2]; subject 1001): 2 h | Cmin ([2]; subject 1002): 80.3 ng/mL | Tmin ([2]; subject 1002): 0 h

CO[C@H]1C[C@@H]2CC[C@@H](C)[C@@](O)(O2)C(=O)C(=O)N2CCCC[C@H]2C(=O)O[C@H]([C@H](C)C[C@@H]2CC[C@@H](OCCO)[C@H](OC)C2)CC(=O)[C@H](C)/C=C(\C)[C@@H](O)[C@@H](OC)C(=O)[C@H](C)C[C@H](C)/C=C/C=C/C=C/1C [Everolimus]
Tmax ([3]; human, plasma, po): 2 h | AUC(0-inf) ([3]; human, plasma, po, AUCinf, subject 1002, after first oral dose of everolimus 30 mg, with sunitinib 50 mg daily, plasma): 1560 ng·h/mL | CL/F ([3]; human, plasma, po, CL/F, subject 1002, after first oral dose of everolimus 30 mg, with sunitinib 50 mg daily, plasma): 3.34 mL/min/kg | Cmax ([3]; human, plasma, po, Cmax, subject 1002, after first oral dose of everolimus 30 mg, with sunitinib 50 mg daily, plasma): 82.3 ng/mL | half-life ([3]; human, plasma, po, t1/2, subject 1002, after first oral dose of everolimus 30 mg, with sunitinib 50 mg daily, plasma): 25.7 h | AUCinf % extrapolated ([3]; subject 1002): 48.7% | AUCinf % extrapolated ([3]; subject 1003): 35.2% | AUCtau relative to AUCinf after the first dose [4]: almost double | bioavailability [5]: 16% | progression-free survival (PFS) over placebo (metastatic RCC [6]): significant improvement | eliminated in bile [7]: 98%
